# Patent publication US20230235397A1, “METHODS FOR CLASSIFICATION AND TREATMENT OF PSYCHOTIC DISORDER SUBJECTS” (CENTRE HOSPITALIER UNIVERSITAIRE VAUDOIS (CHUV), priority 2019, published 2023)
# Test system: Gclm-KO+GBR mice
# Experiment: MitoQ treatment of Gclm-KO+GBR mice (oxidative stress model), markers in anterior cingulate cortex
# Format: in vivo
# Source text: Treatment with MitoQ (P21-P40) in Gclm-KO mice treated with GBR12909 normalizes NIX, FUNDC1 and LC3B expression levels as well as miR-137 expression intensity when compared to values observed for wild-type mice (FIG. 7). […] Thus, MitoQ has been unexpectedly found to be useful in reversing the miR-137 overexpression, mitophagy and parvalbumin interneuron impairment induced by oxidative stress.
# Example 9 relates to an animal model of oxidative stress. Oxidative stress elicits mitophagy in the anterior cingulated cortex (ACC) of Gclm-KO mice (transgenic mice carrying permanent defect in glutathione GSH synthesis). […] Because extranuclear localization of 8-oxo-dG labeling was observed, it could be surmised that mitochondrial DNA (mtDNA) was affected. […] In comparison with WT mice (Gclm-WT+PBS, wherein PBS refers to phosphate-buffered saline, a common buffer used in these experiments as vehicle), levels of the mitophagy receptors NIX and FUNDC1 and of the autophagosome LC3B were reduced in the ACC of Gclm-KO mice (Gclm-KO+PBS, at P40). […] Taken together, these observations are consistent with an oxidative stress-induced mitophagy deficit in prefrontal parvalbumin interneurons.
# It has been shown that miR-137 plays a functional role in modulating synaptic function and in regulating the expression of the NIX and FUNDC1 mitophagy receptors.
# In view of the detrimental effects of oxidative stress on integrity of parvalbumin interneurons, miR-137 expression level as well as mitophagy during preweaning and pubertal stages of development, it was evaluated whether MitoQ treatment, a selective mitochondria targeted-antioxidant, could rescue these deficits in young KO mice. Treatment with MitoQ (P21-P40) in Gclm-KO+GBR mice normalized NIX, FUNDC1 and LC3B expression levels as well as miR-137 expression intensity, when compared to WT values (FIG. 7). […] Thus, MitoQ can reverse the oxidative stress induced miR-137 overexpression, mitophagy and parvalbumin interneuron impairment, highlighting that the upregulation of miR-137 and subsequent mitophagy defect constitutes the molecular mechanism underlying the oxidative stress-induced parvalbumin interneuron impairment.
# [1] = ACC of Gclm-KO+GBR animals, following treatment with MitoQ
# [2] = MitoQ P21-P40, Gclm-KO+GBR mice, ACC, compared to WT values (FIG. 7)
structure (smiles),measurement,setting,value
"COC1=C(OC)C(=O)C(CCCCCCCCCC[PH](c2ccccc2)(c2ccccc2)c2ccccc2)=C(C)C1=O [MitoQ, mitoquinone]",abnormalities in cell body numbers of parvalbumin interneurons,[1],restored to WT levels
same,staining intensity of parvalbumin interneuron processes,[1],restored to WT levels
same,FUNDC1 expression level,[2],normalized
same,LC3B expression level,[2],normalized
same,NIX expression level,[2],normalized
same,miR-137 expression intensity,[2],normalized
